# Values quoted from earlier work in patent US10144908B2, “Liquid soap having enhanced antibacterial activity” (Conopco, Inc., priority 2013, dated 2018).
# Conditions: in water at 25° C.
smiles,measurement,value
O=C([O-])CC(O)(CC(=O)[O-])C(=O)[O-].[Ag+].[Ag+].[Ag+] [Silver citrate],Ksp,2.5e-16 mol/L
